# Structures can show the parent of a compound that is named as a salt. Where two headings read alike, the source gives them in different places.
# Tests used:
# A. baumannii = assay: Gram negative MIC protocol (OD600, LB, 24 h); details: for MIC: Acinetobacter baumannii
# Method: (§1) Overnight bacterial cultures were grown in LB with no added antibiotics at 37° C. with shaking. A 1:1000 dilution of these cultures into LB was exposed to concentration gradients of compounds in 96-well plates (100 μL per well assay volume). Resulting plates were incubated at 37° C. for 24 h without shaking, and OD600 was measured at the end of the incubation. MICs were determined as the lowest concentrations at which OD600 remained at baseline.
# E. coli = assay: Gram negative MIC protocol (OD600, LB, 24 h); details: for MIC: Escherichia coli
# Method: as §1
# H37RvMA = assay: Tuberculosis Alamar Blue/Resazurin assay (MIC); format: cell-based; details: read-out: WT H37Rv MTB Activity
# [1] = read-out: MIC A. baumannii LB Media, A. baumannii, LB media, 24 h, OD600
# [2] = read-out: MIC E. coli delta-TolC LB Media, E. coli delta-TolC strain, LB media, 24 h, OD600
# [3] = read-out: MIC WT E. coli LB Media, wild-type E. coli, LB media, 24 h, OD600
# [4] = Mycobacterium tuberculosis, H37RV, WT H37Rv MTB
# [5] = read-out: MIC E. coli delta-TolC LB Media, E. coli delta-TolC, LB media, OD600
# [6] = read-out: MIC WT E. coli LB Media, WT E. coli, LB media, OD600
# [7] = Mycobacterium tuberculosis, H37RV
# [8] = read-out: MIC A. baumannii LB Media
SMILES,MIC (A. baumannii; [1]),MIC (E. coli; [2]),MIC (E. coli; [3]),MIC (H37RvMA; [4]),MIC (E. coli; [5]),MIC (E. coli; [6]),other results
"CC(C)(C)OC(=O)N(Cc1ccccc1)C(C=O)CC1CCCCC1 (stereo not drawn) [B210, tert-butyl benzyl(1-cyclohexyl-3-oxopropan-2-yl)carbamate]",> 300 µM,> 300 µM,> 300 µM,> 150 µM,,,
CC(NCc1ccccc1)C1CCCC1 (stereo not drawn) [B35],> 150 µM,,,> 150 µM,> 150 µM,> 150 µM,
"O=C1Cc2ccccc2CN1CCC1=CCCCC1 [B411, 2-(2-(cyclohex-1-en-1-yl)ethyl)-1,4-dihydroisoquinolin-3(2H)-one]",> 150 µM,,,7.4 µM,150 µM,> 150 µM,
"O=C1c2ccccc2CN1CCC1CCCCC1 [B419, 2-(2-cyclohexylethyl)isoindolin-1-one]",> 150 µM,,,0.6 µM,150 µM,> 150 µM,
"CC1CCC(Oc2ccccc2CNC(C)CC2CCCCC2)CC1 (stereo not drawn) [B394, 1-cyclohexyl-N-(2-((4-methylcyclohexyl)oxy)benzyl)propan-2-amine]",55 µM,3 µM,150 µM,20.2 µM,,,
"CC1CCC(NC(=O)NS(=O)(=O)Cc2ccccc2CNC(C)CC2CCCCC2)CC1 (stereo not drawn) [B450, 1-(2-(((1-cyclohexylpropan-2-yl)amino)methyl)phenyl)-N-((4-methylcyclohexyl)carbamoyl)methanesulfonamide]",> 150 µM,,,150 µM,150 µM,> 150 µM,
"COC(=O)CCc1ccccc1CNC(C)CC1CCCCC1 (stereo not drawn) [B400, methyl 3-(2-((1-cyclohexylpropan-2-ylamino)methyl)phenyl)propanoate hydrochloride]",> 150 µM,,,> 150 µM,55 µM,> 150 µM,
"CC(C)C[C@H](N)C(=O)NS(=O)(=O)Cc1ccccc1CNC(C)CC1CCCCC1 (stereo partly drawn) [B428, (2S)-2-amino-N-((2-(((1-cyclohexylpropan-2-yl)amino)methyl)benzyl)sulfonyl)-4-methylpentanamide dihydrochloride]",> 150 µM,,,> 150 µM,55 µM,> 150 µM,
COCCOCCOc1ccccc1CNC(C)CC1CCCCC1 (stereo not drawn) [B301],> 150 µM,12 µM,> 150 µM,> 150 µM,,,
"c1coc(-c2ccccc2CNCCC2CCCCC2)c1 [B236, 2-cyclohexyl-N-(2-(furan-2-yl)benzyl)ethanamine hydrochloride]",300 µM,17 µM,54 µM,150 µM,,,
CC(CC1CCCCC1)NCc1ccccc1OCC(=O)N1CCOCC1 (stereo not drawn) [B309],> 150 µM,33 µM,> 150 µM,> 150 µM,,,
"CC(CC1CCCCC1)NCc1ccccc1CS(=O)(=O)Nc1cccc(B(O)O)c1 (stereo not drawn) [B457, (3-(((2-(((1-cyclohexylpropan-2-yl)amino)methyl)phenyl)methyl)sulfonamido)phenyl)boronic acid]",33 µM,,,> 55 µM,< 1 µM,33 µM,
"CC(CC1CCCCC1)NCc1ccccc1CS(=O)(=O)N[C@H](C)C(=O)O (stereo partly drawn) [B455, ((2-(((1-cyclohexylpropan-2-yl)amino)methyl)benzyl)sulfonyl)-D-alanine]",> 150 µM,,,> 150 µM,91 µM,> 150 µM,
c1ccc(CNCC2CCCC2)cc1 [B141],> 150 µM,,,> 150 µM,> 150 µM,> 150 µM,
"CC(CC1CCCCC1)NCc1cccc2ccn(Cc3ccccc3)c12 (stereo not drawn) [B423, N-((1-benzyl-1H-indol-7-yl)methyl)-1-cyclohexylpropan-2-amine]",> 150 µM,,,150 µM,55 µM,> 150 µM,
C1=CC2CC1CC2CCNCc1ccccc1 (stereo not drawn) [B70],> 150 µM,,,> 150 µM,> 150 µM,> 150 µM,
c1ccc(CNCC2Cc3ccccc32)cc1 (stereo not drawn) [B22],> 150 µM,,,> 150 µM,> 150 µM,> 150 µM,
CC(CC1CCCCC1)NCc1ccccc1OCc1cc(Br)no1 (stereo not drawn) [B302],150 µM,< 1 µM,150 µM,55 µM,,,
COc1ccc(CC(C)NCc2ccccc2)cn1 (stereo not drawn) [B68],> 150 µM,,,,> 150 µM,> 150 µM,MIC (H37RvMA; [7]): > 150 µM
Clc1cccc(CNCCC2CCCCC2)c1 [B351],> 150 µM,> 150 µM,> 150 µM,> 150 µM,,,
CC(CC1CCCCC1)NCc1ccccc1OCc1cn(C)nn1 (stereo not drawn) [B300],> 150 µM,12 µM,> 150 µM,> 150 µM,,,
CC(CC1CCCCC1)NCc1ccccc1OCC(=O)N(C)C1CCCCC1 (stereo not drawn) [B263],> 150 µM,3 µM,> 150 µM,91 µM,,,
c1ccc(CNC2CCc3cccc4cccc2c34)cc1 (stereo not drawn) [B195],> 300 µM,,,> 150 µM,300 µM,> 300 µM,
c1ccc(CNCCc2ccc3c(c2)OCO3)cc1 [B154],,,,,> 150 µM,> 150 µM,MIC (A. baumannii; [8]): > 150 µM; MIC (H37RvMA; [7]): > 150 µM

SMILES,MIC (A. baumannii; [1]),MIC (E. coli; [2]),MIC (E. coli; [3]),MIC (H37RvMA; [4]),MIC (E. coli; [5]),MIC (E. coli; [6]),other results
CSCCCOc1ccccc1CNC(C)CC1CCCCC1 (stereo not drawn) [B364],150 µM,3 µM,150 µM,91 µM,,,
"CC(CC1CCCCC1)NCc1ccccc1CS(N)(=O)=O (stereo not drawn) [B414, (2-(((1-cyclohexylpropan-2-yl)amino)methyl)phenyl)methanesulfonamide]",150 µM,,,> 150 µM,4 µM,20 µM,
CC(CC1CCCCC1)NCc1ccccc1OCCCN1CCOC1=O (stereo not drawn) [B264],150 µM,3 µM,150 µM,> 150 µM,,,
COc1ccc(CNCCC2=CCCCC2)cc1 [B12],> 150 µM,,,> 150 µM,> 150 µM,> 150 µM,
CCOC(COc1ccccc1CNC(C)CC1CCCCC1)OCC (stereo not drawn) [B298],> 150 µM,12 µM,> 150 µM,> 150 µM,,,
CC(CC1CCCCC1)NCc1ccccc1OCCCN(C)C1CCCC1 (stereo not drawn) [B344],91 µM,91 µM,150 µM,150 µM,,,
"CC(CC1CCCCC1)N1Cc2ccccc2OC1=O (stereo not drawn) [B426, 3-(1-cyclohexylpropan-2-yl)-3,4-dihydro-2H-benzo[e][1,3]oxazin-2-one]",> 150 µM,,,1.7 µM,55 µM,> 150 µM,
OB1OCc2cccc(CNCCC3CCCCC3)c21 [B339],> 300 µM,200 µM,> 300 µM,> 150 µM,,,
C1=Nc2cccc(CCNCc3ccccc3)c2C1 [B57],,,,,> 150 µM,> 150 µM,MIC (A. baumannii; [8]): > 150 µM; MIC (H37RvMA; [7]): > 150 µM
CC(CC1CCCCC1)NCc1ccccc1OCC(=O)N1CC(C)OC(C)C1 (stereo not drawn) [B333],> 150 µM,7 µM,> 150 µM,> 150 µM,,,
OC(CNCc1ccccc1)c1cccc2ccccc12 (stereo not drawn) [B19],,,,,,,"MIC A. baumannii LB Media (A. baumannii; A. baumannii, LB media, OD600): >150 µM; MIC E. coli delta-TolC LB Media (E. coli; E. coli delta-TolC, LB media, OD600): >150 µM; MIC WT E. coli LB Media (E. coli; WT E. coli, LB media, OD600): >150 µM; MIC (H37RvMA; WT H37Rv MTB): 150 µM"
C1=Nc2c(cccc2CCNCc2ccccc2)C1 [B48],,,,,> 150 µM,> 150 µM,MIC (A. baumannii; [8]): 150 µM; MIC (H37RvMA; [7]): 150 µM
CN1CCC(CNCc2ccccc2)c2ccccc21 (stereo not drawn) [B139],> 150 µM,,,> 150 µM,> 150 µM,> 150 µM,
COc1ccc(CC(C)(C)NCc2ccccc2)cc1 [B50],,,,,> 150 µM,> 150 µM,MIC (A. baumannii; [8]): > 150 µM; MIC (H37RvMA; [7]): > 150 µM
"Cc1ccc(COc2ccccc2CNC(C)CC2CCCCC2)cc1 (stereo not drawn) [B460, 1-cyclohexyl-N-(2-((4-methylbenzyl)oxy)benzyl)propan-2-amine]",33 µM,,,10 µM,< 1 µM,33 µM,
OC(CNCc1ccccc1)C1CCCCC1 (stereo not drawn) [B172],,,,,96 µM,170 µM,MIC (A. baumannii; [8]): > 300 µM; MIC (H37RvMA; [7]): > 150 µM
FC1(F)Oc2ccc(CCNCc3ccccc3)cc2O1 [B120],,,,,> 150 µM,> 150 µM,MIC (A. baumannii; [8]): > 150 µM; MIC (H37RvMA; [7]): > 150 µM
c1ccc(CNC[C@@H]2C[C@H]2c2ccccc2)cc1 [B61],> 150 µM,,,> 150 µM,> 150 µM,> 150 µM,
"CC(CC1CCCCC1)NCc1ccccc1CS(C)(=O)=O (stereo not drawn) [B424, 1-cyclohexyl-N-(2-((methylsulfonyl)methyl)benzyl)propan-2-amine]",150 µM,,,> 150 µM,3 µM,33 µM,
CC1CCc2ccccc2N1CCNCc1ccccc1 (stereo not drawn) [B145],> 150 µM,,,91 µM,> 150 µM,> 150 µM,
CC(CC1CCCCC1)NCc1ccccc1OCC(=O)N1CCCC1 (stereo not drawn) [B290],> 150 µM,33 µM,> 150 µM,> 150 µM,,,
CC(CC1CCCCC1)NCc1ccccc1OCc1ccncc1 (stereo not drawn) [B283],91 µM,7 µM,91 µM,150 µM,,,
"CNS(=O)(=O)Cc1ccccc1CNC(C)CC1CCCCC1 (stereo not drawn) [B445, 1-(2-(((1-cyclohexylpropan-2-yl)amino)methyl)phenyl)-N-methylmethanesulfonamide]",150 µM,,,> 150 µM,4 µM,55 µM,
CC(CC1CCCCC1)NCc1ccccc1OCCN(C)C (stereo not drawn) [B315],150 µM,150 µM,91 µM,> 150 µM,,,
